ChEMBL document CHEMBL1201862, “PubChem BioAssay data set” (2004)
Activity calls are given as the source filed them.

Legend:
Staphylococcus aureus = experiment: Inhibitors of Bacterial Quorum Sensing Structure Activity Relationship (SAR) Analysis: Dose Response Assay. [Related pubchem assays: 700, 527 ]; type: functional, organism-based
[1] = molecular target: Transitional endoplasmic reticulum ATPase (Homo sapiens, UniProt P55072, C522A); experiment: C522A mutant p97 ATPase inhibitors, dose response, counter-screen for p97 inhibitor project, biochemical, luminescence (AID 1544)
[2] = molecular target: Transitional endoplasmic reticulum ATPase (Homo sapiens, UniProt P55072); experiment: p97 ATPase inhibitors, dose response, biochemical (AID 1534)
[3] = inhibitors of firefly luciferase expression or activity, dose response, H4 neuroglioma cells, luminescence (AID 1990); type: functional, cell-based
[4] = molecular target: T1, Neuropeptide Y receptor type 2 (Homo sapiens, UniProt P49146); type: functional, cell-based;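 for IC50: HEK293 cells expressing the receptor and a CNG channel; stimulus was NPY near EC95 followed by isoproterenol to raise cAMP; antagonist potency measured as restoring cAMP signal that NPY suppresses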
[5] = molecular target: T2, Neuropeptide Y receptor type 1 (Homo sapiens, UniProt P25929); type: functional;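 for IC50: HEK293 cells with a CNG channel challenged with NPY then isoproterenol; potency as antagonist that reverses NPY suppression of cAMP signal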
[6] = Luminescence Cell-Based Dose Response HTS to Identify Inhibitors of 5'UTR Stem-Loop Driven Prion Protein mRNA Translation in H4 Neuroglioblastoma Cells. [Related pubchem assays: 1827 (Project Summary), 1813 (Primary HTS)]; type: functional
[7] = inhibitors of SNCA 5'UTR-driven reporter translation, confirmation, H4 neuroglioma cells, luminescence (AID 1988); type: functional, cell-based
[8] = molecular target: Peroxisome proliferator-activated receptor gamma/Nuclear receptor corepressor 2 (Homo sapiens, UniProt P37231+Q9Y618); type: functional
[9] = molecular target: Photoreceptor-specific nuclear receptor (Homo sapiens, UniProt Q9Y5X4); type: functional;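 note: potency for compounds that break the NR2E3 corepressor complex and count as activators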
[10] = insulin promoter down-regulators in MIN6 cells, imaging, high-content screening, mouse beta cells (AID 1628); type: functional
Large T antigen = Large T antigen (Simian virus 40, UniProt P03070); type: functional, Betapolyomavirus macacae;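 note: Confirmatory-stage PubChem screen for compounds that inhibit SV40 T antigen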
[11] = molecular target: T3, Mannose-6-phosphate isomerase (Homo sapiens, UniProt P34949); experiment: inhibitors of human PMI, primary screen, biochemical, fluorescence intensity, coupled assay (AID 1209)
T3 sequence (P34949 whole entry): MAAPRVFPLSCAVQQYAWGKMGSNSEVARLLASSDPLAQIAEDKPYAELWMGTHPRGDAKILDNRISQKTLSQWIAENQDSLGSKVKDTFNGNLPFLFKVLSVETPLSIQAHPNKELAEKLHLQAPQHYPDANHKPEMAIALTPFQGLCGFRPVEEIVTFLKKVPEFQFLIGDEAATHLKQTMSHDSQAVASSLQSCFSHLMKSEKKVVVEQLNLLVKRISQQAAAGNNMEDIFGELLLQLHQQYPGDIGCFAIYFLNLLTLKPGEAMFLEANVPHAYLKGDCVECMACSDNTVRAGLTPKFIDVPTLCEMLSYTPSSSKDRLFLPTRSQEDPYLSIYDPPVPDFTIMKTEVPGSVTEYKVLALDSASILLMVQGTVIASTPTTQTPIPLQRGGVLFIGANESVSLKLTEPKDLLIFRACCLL

[12] = cytotoxicity in MIN6 insulinoma cells, dose response, cytotoxicity control, cell-based, mouse insulinoma (AID 2122); type: functional;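 note: confirmatory high-throughput counterscreen run to flag cytotoxic compounds; mouse MIN-6 beta cells carrying an insulin promoter eGFP reporter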
[13] = molecular target: Lysosomal acid glucosylceramidase (Homo sapiens, UniProt P04062); experiment: Dose response cell-based high throughput screening assay to identify enhancers of beta-glucosidase activity. [Related pubchem assays: 784 ]; type: functional
cells [14] = type: functional, cell-based
cells [15] = type: functional, cell-based; remark: listed apart in the source
Bcl-2-like protein 10 = molecular target: T4, Bcl-2-like protein 10 (Homo sapiens, UniProt Q9HD36); experiment: Biochemical TR3 FP assay of Bcl-B inhibitor potency, EC50 (AID 1243); type: functional
T4 sequence (Q9HD36 whole entry): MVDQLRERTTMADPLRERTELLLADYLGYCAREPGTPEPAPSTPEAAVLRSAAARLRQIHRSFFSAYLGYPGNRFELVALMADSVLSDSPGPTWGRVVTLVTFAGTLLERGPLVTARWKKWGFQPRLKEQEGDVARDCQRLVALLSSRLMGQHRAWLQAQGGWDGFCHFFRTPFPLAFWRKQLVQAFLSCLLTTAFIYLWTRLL

[16] = cytotoxicity in KRAS-transformed pancreatic duct cells, primary screen, cell-based, fluorescence, HTS (AID 431); type: functional; settings: Homo sapiens;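 note: cell line used: HPDE-C7K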
INS1 = experiment: beta cell apoptosis inhibitors, cytokine rescue, dose response, luminescence, retest (AID 449756); type: functional, cell-based; settings: Rattus norvegicus;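 note: cell death triggered by IL-1 beta plus TNF-alpha plus IFN-gamma mixture; protective hits raise ATP signal compared with cytokine alone wells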
[17] = Vero E6 cell cytotoxicity, dose response, cytotoxicity control for non-replicating M. tuberculosis project, secondary assay (AID 492998); type: functional, VeroE6; settings: Vero C1008
[18] = cytotoxicity in HPDE-C7 cells, cell-based, fluorescence, HTS (AID 430); type: functional; settings: Homo sapiens
[19] = HepG2 cell cytotoxicity, dose response, cytotoxicity control for non-replicating M. tuberculosis project (AID 489018); type: functional; settings: Mycobacterium tuberculosis
cells [20] = type: functional
[21] = THP-1 cell cytotoxicity, dose response, cytotoxicity control for non-replicating M. tuberculosis project (AID 489025); type: functional
[22] = microbe, parasite or virus in culture; type: functional; settings: Mycobacterium tuberculosis
[23] = molecular target: T5, Calpain-2 catalytic subunit (Sus scrofa, UniProt P43367); experiment: pig calpain II inhibitor potency, dose response, biochemical, fluorogenic peptide substrate (AID 1420); type: functional
T5 sequence (P43367 whole entry): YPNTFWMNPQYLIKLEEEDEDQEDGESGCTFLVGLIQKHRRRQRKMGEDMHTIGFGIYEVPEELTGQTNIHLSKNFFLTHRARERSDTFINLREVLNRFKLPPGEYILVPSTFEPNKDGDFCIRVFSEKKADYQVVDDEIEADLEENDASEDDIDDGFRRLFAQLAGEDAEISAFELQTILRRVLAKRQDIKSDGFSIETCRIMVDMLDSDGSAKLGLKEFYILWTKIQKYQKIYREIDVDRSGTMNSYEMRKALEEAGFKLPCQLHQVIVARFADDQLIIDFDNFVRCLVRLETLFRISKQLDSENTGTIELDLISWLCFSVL

[24] = growth suppression of beta-catenin-knockout colon cells, dose response, cell-based, HCT116, human colon tumor (AID 1045); type: functional;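 note: HCT116 colon tumor cells with beta catenin knocked out; cells exposed to compound for 60 hours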
Wee1-like protein kinase = Wee1-like protein kinase (Homo sapiens, UniProt P30291); experiment: Dose Response Cell-based Assay for Inhibitors of Wee1 Degradation. [Related pubchem assays: 1410, 1321 ]; type: functional
[25] = molecular target: G2/mitotic-specific cyclin-B1 (Homo sapiens, UniProt P14635); experiment: Counterscreen assay for inhibitors of Wee1 degradation: dose response cell-based assay to identify inhibitors of cyclin B degradation. [Related pubchem assays: 1410, 1321 ]; type: functional
[26] = growth suppression of PTEN-null colon cells, dose response, cell-based, HCT116 PTEN knockout (AID 1047); type: functional;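 note: HCT116 colon tumor cells with PTEN knocked out; cells exposed to compound for 60 hours before readout; potency for loss of cell viability measured by luminescence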
[27] = molecular target: T6, Eukaryotic translation initiation factor 2-alpha kinase 3 (Homo sapiens, UniProt Q9NZJ5); experiment: Counterscreen assay for PERK inhibitors: Dose response cell-based high throughput screening assay to measure inhibition of PERK at 6 hours. [Related pubchem assays: 1522, 1416 ]; type: functional
[28] = molecular target: T6, Eukaryotic translation initiation factor 2-alpha kinase 3; experiment: Dose response cell-based high-throughput screening assay to measure PERK inhibition. [Related pubchem assays: 1416 ]; type: functional
Tumor necrosis factor = Tumor necrosis factor (Homo sapiens, UniProt P01375); experiment: TNFa-triggered NF-kB activation inhibitors, SAR follow-up, cell-based, revised (AID 2337); type: functional
HEK293 [29] = experiment: Fluorescence-based counterscreen for potentiators or agonists of NPY-Y2: cell-based high-throughput dose response assay to identify inhibitors of cyclic nucleotide gated ion channel (CNGC) activity. In this assay, the parental HEK293 cell line transfected with a cyclic-nucleotide gated ion channel (CNGC)-based cAMP sensor is used to measure inhibition of isoproterenol-induced CNGC activity by test compound.; type: functional; settings: Homo sapiens
[30] = molecular target: T1, Neuropeptide Y receptor type 2; experiment: Fluorescence-based cell-based high-throughput dose response assay for agonists of NPY-Y2. [Related pubchem assays: 1703 (Screening assay (CNGC inhibitors).), 1359 (Screening assay (NPY-Y2 potentiators or agonists).), 1304 (Screening assay (NPY-Y1 potentiators or agonists).), 1710 (Screening assay (NPY-Y2 agonists).), 1791 (Summary AID.)]; type: functional
[31] = molecular target: T7, Nucleotide-binding oligomerization domain-containing protein 1 (Homo sapiens, UniProt Q9Y239); experiment: NOD1 signaling inhibitors, SAR follow-up, revised (AID 2333); type: functional
T7 sequence (Q9Y239 whole entry): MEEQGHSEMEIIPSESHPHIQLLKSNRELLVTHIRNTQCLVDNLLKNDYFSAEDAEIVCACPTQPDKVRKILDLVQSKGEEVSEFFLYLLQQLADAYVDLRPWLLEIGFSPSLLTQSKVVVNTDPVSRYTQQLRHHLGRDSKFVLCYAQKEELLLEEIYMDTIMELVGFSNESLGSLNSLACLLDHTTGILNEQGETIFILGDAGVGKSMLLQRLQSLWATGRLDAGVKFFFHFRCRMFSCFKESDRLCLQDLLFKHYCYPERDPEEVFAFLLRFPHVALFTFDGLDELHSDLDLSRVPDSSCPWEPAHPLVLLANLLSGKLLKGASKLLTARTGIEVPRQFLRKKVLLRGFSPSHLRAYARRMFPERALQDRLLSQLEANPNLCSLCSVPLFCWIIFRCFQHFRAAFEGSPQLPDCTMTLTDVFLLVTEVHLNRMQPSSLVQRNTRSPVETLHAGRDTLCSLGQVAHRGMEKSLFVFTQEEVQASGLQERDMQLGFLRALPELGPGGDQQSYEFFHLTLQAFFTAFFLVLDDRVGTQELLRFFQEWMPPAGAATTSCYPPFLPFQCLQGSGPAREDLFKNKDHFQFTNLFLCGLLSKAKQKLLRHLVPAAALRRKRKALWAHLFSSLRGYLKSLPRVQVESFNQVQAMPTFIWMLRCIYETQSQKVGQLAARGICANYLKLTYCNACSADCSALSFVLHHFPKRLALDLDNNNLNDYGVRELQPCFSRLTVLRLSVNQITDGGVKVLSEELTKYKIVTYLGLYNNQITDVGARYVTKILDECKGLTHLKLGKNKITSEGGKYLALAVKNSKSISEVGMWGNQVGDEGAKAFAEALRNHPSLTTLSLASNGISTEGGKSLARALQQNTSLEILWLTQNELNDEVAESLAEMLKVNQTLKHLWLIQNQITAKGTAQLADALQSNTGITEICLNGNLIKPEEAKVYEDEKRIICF

HEK293 [32] = experiment: cells; settings: Homo sapiens
Vero = experiment: cells; type: functional; settings: Chlorocebus sabaeus
[33] = molecular target: T2, Neuropeptide Y receptor type 1; experiment: Fluorescence-based counterscreen for agonists of NPY-Y2: cell-based high-throughput dose response assay for agonists of NPY-Y1.; type: functional

T1 sequence (P49146 whole entry): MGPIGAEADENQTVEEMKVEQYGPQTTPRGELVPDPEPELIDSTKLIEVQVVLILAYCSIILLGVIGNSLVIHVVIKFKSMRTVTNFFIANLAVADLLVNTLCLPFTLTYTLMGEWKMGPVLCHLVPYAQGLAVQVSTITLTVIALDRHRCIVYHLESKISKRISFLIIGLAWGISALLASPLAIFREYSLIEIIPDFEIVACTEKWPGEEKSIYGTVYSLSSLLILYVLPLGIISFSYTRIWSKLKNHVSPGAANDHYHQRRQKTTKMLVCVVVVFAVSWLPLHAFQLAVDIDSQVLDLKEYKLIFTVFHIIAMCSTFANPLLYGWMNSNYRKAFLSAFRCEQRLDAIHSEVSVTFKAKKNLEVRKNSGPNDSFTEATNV
T6 sequence (Q9NZJ5 whole entry): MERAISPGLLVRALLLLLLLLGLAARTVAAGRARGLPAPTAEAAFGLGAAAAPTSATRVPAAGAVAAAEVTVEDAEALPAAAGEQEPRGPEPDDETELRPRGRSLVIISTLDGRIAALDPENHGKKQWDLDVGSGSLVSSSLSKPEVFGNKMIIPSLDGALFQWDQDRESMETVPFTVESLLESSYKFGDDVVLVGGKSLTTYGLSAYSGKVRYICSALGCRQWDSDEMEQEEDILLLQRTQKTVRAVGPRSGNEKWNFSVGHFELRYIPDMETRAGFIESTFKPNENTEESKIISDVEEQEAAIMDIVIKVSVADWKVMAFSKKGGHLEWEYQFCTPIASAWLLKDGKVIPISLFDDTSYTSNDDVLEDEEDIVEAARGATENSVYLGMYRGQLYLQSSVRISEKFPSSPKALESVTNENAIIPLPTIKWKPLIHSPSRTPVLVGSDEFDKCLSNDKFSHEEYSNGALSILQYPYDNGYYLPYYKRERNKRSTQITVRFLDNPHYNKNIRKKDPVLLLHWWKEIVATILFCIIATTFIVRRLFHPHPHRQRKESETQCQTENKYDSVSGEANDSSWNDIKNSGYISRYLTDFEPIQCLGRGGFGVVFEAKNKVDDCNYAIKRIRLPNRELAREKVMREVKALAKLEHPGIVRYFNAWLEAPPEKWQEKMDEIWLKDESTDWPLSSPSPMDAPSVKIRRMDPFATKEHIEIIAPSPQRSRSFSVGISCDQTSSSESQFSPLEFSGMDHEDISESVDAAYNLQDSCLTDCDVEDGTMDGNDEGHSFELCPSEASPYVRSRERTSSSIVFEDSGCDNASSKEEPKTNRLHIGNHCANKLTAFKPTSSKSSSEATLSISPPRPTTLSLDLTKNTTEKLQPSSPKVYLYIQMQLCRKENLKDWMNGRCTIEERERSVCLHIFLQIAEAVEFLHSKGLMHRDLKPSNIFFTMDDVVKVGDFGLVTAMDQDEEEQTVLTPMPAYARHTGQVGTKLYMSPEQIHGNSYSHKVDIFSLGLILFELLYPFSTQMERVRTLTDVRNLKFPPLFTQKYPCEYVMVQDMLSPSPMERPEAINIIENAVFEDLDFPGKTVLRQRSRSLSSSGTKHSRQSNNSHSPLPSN
T2 sequence (P25929 whole entry): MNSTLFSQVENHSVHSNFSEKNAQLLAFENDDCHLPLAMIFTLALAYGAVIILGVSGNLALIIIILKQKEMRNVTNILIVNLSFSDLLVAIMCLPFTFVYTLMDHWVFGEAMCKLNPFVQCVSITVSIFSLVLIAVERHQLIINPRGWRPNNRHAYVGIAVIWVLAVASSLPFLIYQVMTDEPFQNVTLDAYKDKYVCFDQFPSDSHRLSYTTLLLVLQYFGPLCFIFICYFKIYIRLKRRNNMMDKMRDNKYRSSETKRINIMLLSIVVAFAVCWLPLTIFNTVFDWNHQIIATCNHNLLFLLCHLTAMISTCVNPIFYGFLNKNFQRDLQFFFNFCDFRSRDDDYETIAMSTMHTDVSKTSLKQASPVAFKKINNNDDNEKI
Chain of G2/mitotic-specific cyclin-B1 (P14635 whole entry): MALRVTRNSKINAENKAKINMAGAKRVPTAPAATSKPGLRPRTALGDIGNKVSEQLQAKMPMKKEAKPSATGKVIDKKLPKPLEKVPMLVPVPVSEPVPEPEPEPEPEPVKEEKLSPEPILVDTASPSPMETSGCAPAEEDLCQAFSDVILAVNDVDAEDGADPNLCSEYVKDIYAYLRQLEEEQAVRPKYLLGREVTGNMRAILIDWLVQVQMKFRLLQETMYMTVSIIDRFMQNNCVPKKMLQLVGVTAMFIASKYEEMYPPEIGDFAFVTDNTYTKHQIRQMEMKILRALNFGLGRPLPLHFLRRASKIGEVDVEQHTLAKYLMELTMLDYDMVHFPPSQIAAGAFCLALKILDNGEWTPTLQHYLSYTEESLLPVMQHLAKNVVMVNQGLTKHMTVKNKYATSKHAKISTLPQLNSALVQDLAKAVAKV
Chain of Transitional endoplasmic reticulum ATPase (Homo sapiens, UniProt P55072) (P55072 whole entry): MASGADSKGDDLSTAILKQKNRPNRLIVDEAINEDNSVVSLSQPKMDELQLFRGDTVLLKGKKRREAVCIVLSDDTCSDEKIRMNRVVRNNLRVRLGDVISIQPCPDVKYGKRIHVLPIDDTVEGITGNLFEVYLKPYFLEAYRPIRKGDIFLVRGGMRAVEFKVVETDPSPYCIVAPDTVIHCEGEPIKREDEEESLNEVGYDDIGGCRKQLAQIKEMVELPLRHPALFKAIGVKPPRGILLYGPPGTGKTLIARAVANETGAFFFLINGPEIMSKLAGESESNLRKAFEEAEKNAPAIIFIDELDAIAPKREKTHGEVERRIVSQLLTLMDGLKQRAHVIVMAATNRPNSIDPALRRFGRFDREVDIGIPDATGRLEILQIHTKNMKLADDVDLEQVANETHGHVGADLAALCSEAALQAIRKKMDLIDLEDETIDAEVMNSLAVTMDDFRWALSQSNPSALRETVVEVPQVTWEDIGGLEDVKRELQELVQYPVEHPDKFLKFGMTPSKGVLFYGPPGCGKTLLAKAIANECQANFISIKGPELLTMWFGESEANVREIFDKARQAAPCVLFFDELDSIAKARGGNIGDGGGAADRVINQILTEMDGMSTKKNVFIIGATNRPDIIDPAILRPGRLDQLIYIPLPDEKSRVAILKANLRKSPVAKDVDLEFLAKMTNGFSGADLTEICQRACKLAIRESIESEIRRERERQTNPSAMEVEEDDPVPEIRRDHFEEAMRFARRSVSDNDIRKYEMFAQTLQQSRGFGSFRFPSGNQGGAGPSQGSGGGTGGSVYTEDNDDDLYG
Chain of Photoreceptor-specific nuclear receptor (Q9Y5X4 whole entry): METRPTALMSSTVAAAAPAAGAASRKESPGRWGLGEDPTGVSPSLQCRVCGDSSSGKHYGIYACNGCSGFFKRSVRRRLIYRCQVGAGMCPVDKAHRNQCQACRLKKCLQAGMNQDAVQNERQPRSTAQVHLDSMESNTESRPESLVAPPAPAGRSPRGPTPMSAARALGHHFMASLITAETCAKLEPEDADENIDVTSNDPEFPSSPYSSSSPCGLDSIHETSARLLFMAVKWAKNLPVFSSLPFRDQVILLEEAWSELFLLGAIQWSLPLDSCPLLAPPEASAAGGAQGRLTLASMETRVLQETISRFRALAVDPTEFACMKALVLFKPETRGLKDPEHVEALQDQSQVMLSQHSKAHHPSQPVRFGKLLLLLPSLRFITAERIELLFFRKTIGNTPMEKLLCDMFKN
Chain of Wee1-like protein kinase (P30291 whole entry): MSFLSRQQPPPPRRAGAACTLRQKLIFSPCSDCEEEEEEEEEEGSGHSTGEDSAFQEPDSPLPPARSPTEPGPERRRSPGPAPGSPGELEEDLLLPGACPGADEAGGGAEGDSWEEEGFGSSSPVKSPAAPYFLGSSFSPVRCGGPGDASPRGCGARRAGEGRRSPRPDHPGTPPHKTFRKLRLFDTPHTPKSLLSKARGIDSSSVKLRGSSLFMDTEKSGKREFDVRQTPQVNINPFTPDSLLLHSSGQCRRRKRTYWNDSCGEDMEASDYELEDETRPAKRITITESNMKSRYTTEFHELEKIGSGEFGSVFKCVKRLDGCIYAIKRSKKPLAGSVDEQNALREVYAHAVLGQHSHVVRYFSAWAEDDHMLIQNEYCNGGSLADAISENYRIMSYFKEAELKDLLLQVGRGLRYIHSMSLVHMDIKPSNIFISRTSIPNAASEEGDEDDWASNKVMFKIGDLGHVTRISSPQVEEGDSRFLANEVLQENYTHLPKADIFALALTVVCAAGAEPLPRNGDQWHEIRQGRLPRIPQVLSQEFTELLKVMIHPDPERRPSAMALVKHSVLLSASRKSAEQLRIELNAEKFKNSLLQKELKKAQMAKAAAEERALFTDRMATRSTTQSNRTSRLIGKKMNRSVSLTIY
Chain of Tumor necrosis factor (P01375 whole entry): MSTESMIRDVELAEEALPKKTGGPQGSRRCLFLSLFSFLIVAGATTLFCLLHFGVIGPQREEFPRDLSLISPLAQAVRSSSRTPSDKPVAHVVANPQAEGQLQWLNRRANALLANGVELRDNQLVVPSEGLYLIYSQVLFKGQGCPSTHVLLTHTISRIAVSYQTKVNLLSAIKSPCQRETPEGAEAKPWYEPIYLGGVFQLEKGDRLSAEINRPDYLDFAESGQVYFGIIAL
Chain of Lysosomal acid glucosylceramidase (P04062 whole entry): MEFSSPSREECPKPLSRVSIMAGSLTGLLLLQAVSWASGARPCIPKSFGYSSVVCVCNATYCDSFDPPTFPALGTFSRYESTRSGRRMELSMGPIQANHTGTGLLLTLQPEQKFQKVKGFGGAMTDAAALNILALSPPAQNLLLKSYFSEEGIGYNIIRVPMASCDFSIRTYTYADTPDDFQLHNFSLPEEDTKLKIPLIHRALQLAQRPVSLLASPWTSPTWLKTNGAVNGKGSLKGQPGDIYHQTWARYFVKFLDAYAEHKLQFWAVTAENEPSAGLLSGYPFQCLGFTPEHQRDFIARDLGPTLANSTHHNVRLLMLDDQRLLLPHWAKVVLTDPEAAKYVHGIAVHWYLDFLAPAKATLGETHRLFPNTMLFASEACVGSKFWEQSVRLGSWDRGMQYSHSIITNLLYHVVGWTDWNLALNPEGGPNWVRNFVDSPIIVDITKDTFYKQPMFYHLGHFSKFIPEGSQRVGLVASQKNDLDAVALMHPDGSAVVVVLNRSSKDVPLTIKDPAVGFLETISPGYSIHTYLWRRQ

For `CCc1ccc(S(=O)(=O)c2nnn3c2nc(O)c2ccccc23)cc1`, which IC50 (Staphylococcus aureus) is on record?
Its IC50 is 0.244 µM (active).

What does the source list for `Cc1ccc2[nH]cc(C(=O)CCl)c2c1`?
IC50 [1]: > 50 µM (not active); IC50 [2]: > 50 µM (not active)

Which EC50 [3] does the source give for `C/C=C(/C)C(=O)O[C@@H]1c2c(ccc3ccc(=O)oc23)O[C@@H]1C(C)(C)OC(=O)/C(C)=C\C` here?
The EC50 was 15.2 µM (active).

And the IC50 [4]?
The IC50 was 5.06 µM (active).

And the IC50 [5]?
Its IC50 is 5.85 µM (active).

What about the EC50 [6] of the same compound?
Its EC50 is > 120 µM (not active).

And the EC50 [7]?
The EC50 was > 120 µM (not active).

Which IC50 [8] does the source give for `CC(C)Cc1c2c([nH]c(=S)c1C#N)CCCC2` here?
Its IC50 is 6.27 µM (active).

And the IC50 [9]?
Its IC50 is > 39.8 µM (not active).

With `Cc1ccc(Nc2nc(-c3ccc(O)c(O)c3)cs2)nc1` as the compound, how does the IC50 [10] read?
The IC50 was 6.26 µM (active).

What about the IC50 (Large T antigen) of the same compound?
Its IC50 is 12.3 µM (active).

What about the IC50 [11] of the same compound?
The IC50 was 48.6 µM (active).

What about the IC50 [12] of the same compound?
The IC50 was 3.85 µM (active).

What does the source list for `COc1ccc(CNC(=O)CN(CC2CCCO2)C(=O)CNS(=O)(=O)c2ccc(C)cc2)cc1` (stereo not drawn)?
EC50 [13]: > 50 µM (not active); EC50 (cells [14]): > 350 µM (not active); EC50 (cells [15]): > 350 µM (not active)

With `COc1ccc(Nc2ccc(N)cc2)cc1` as the compound, how does the EC50 (Bcl-2-like protein 10) read?
Its EC50 is 7.22 µM (active).

What does the source list for `[O-][n+]1onc2c3cc(-c4ccccc4)[nH]c3ccc21`?
EC50 [16]: 9.83 µM (active); AC50 (INS1): 2.52 µM (active); CC50 [17]: 1.27 µM (active); EC50 [18]: 4.16 µM (active); CC50 [19]: 2.6 µM (active); IC50 (cells [20]): 0.67 µM (active); CC50 [21]: 1.57 µM (active); CC50 [22]: 1.47 µM (active); IC50 [23]: 1.59 µM (not active); EC50 [24]: 0.597 µM (active); EC50 (Wee1-like protein kinase): > 1.84 µM (active); EC50 [25]: > 49.7 µM (not active); EC50 [26]: 0.65 µM (active)

Which results are given for `COc1ccc2nc(NC(=O)CSc3nnc(C)n3N)sc2c1`?
EC50 [27]: > 55.7 µM (not active); EC50 [28]: > 55.7 µM (not active)

With `O=C(Nc1cccc([N+](=O)[O-])c1)c1cc2ccccc2cc1O` as the compound, how does the IC50 (Tumor necrosis factor) read?
Its IC50 is 2.2 µM (active).

And the EC50 (HEK293 [29])?
The EC50 was > 35.4 µM (not active).

And the AC50 (INS1)?
The AC50 was 3.67 µM (active).

And the IC50 [10]?
Its IC50 is 2.73 µM (active).

What about the EC50 [30] of the same compound?
The EC50 was > 35.4 µM (not active).

What about the IC50 [31] of the same compound?
Its IC50 is 1.48 µM (active).

What about the IC50 (HEK293 [32]) of the same compound?
Its IC50 is 11.8 µM (active).

And the CC50 (Vero)?
The CC50 was 3.95 µM (active).

And the EC50 [33]?
Its EC50 is > 35.4 µM (not active).

What about the IC50 [12] of the same compound?
Its IC50 is 2.72 µM (active).
